Values of other authors, collected in patent US20080302375A1 (priority 2003, published 2008).

Settings: upon the smoking of a cigarette

For `CN1CCCC1c1cccnc1` (stereo not shown) [nicotine, 3-(1-methyl-2-pyrrolidinyl)-pyridine], the “time for nicotine to reach the brain after inhalation” value is listed as “ten”.
